Tests used:
Format in all cases: cell-based
[1] = system: Colorectal carcinoma HCT116 cells; test: HCT116 + ETR1 cell death assay (MTT, 72 hours); details: with HGS ETR1 40 ng/ml
Protocol: Colorectal carcinoma HCT116 cells were cultured as monolayers in 96 well plates at a density of 2000 cells per well in McCoy's 5a medium (HyClone) supplemented with 2.2 g/L sodium bicarbonate (Gibco), 10% FBS (HyClone) and 1% penecillin/streptomycin (HyClone). 24 hours later, triplicate wells were treated with HGS ETR1 (40 ng/ml) in combination with compound. Cells were incubated in the presence of compound and HGS agonistic Trail receptor antibody, ETR1 (Mapatumamab, 40 ng/ml) for 72 hours. Metabolic viability of remaining cells was assessed by MTT (thiazolyl blue tetrazolium bromide, Sigma) assay.
(§1) EC50 values (50% cell survival in the presence of compound as compared to untreated controls) were calculated from survival curves using BioAssay software (CambridgeSoft, HCT116 and SKOV3 SAR) and GraphPad Prism (Graph Pad Software Inc., Synoviocyte SAR).

[2] = system: Rheumatoid arthritis human fibroblast-like synoviocytes (HFLS-RA); test: Synoviocytes + Fas antibody cell survival assay (Cell Titer-Glo); details: with 300 ng/ml anti-human CD95 (Fas) antibody CH-11, 72 hours, read-out: EC50 synoviocyctes + FAS
Protocol: Rheumatoid arthritis human fibroblast-like synoviocytes (HFLS-RA, Cell Applications Inc.) were seeded in 96-well plates at 3000 cells per well in complete synoviocyte growth medium (Cell Applications Inc.) one day prior to treatment. Triplicate wells were treated for 72 hours compound in combination with 300 ng/ml anti-human CD95 (Fas) antibody (clone CH-11, Beckman Coulter/Immunotech). Cell survival was measured by Cell Titer-Glo Luminescent Assay (Promega).
as §1

[3] = system: Ovarian adenocarcinoma SKOV3 cells; test: SKOV3 cell death assay (MTT, 72 hours); details: Homo sapiens, SK-OV-3, compound alone
Protocol: Ovarian adenocarcinoma SKOV3 cells were cultured as monolayers in McCoy's 5a medium (HyClone) supplemented with 2.2 g/L sodium bicarbonate (Gibco), 10% FBS (HyClone) and 1% penicillin/streptomycin (HyClone). Cells were seeded in 96 well plates at 5000 cells/well. After 24 hours in culture, cells were treated with compound. Cells were incubated in the presence of compound for 72 hours. Metabolic viability of remaining cells was assessed by MTT (thiazolyl blue tetrazolium bromide, Sigma) assay.
as §1

SMILES	EC50 [1]	EC50 [2]	EC50 [3]
CN[C@@H](C)C(=O)N[C@H](C(=O)N1CCC[C@H]1CN(CCc1ccccc1)C(=O)CNC(=O)c1ccc(-c2ccc(C(=O)NCC(=O)N(CCc3ccccc3)C[C@@H]3CCCN3C(=O)[C@@H](NC(=O)[C@H](C)NC)C3CCCCC3)cc2)cc1)C1CCCCC1 [Compound 2]	< 100 nM	< 100 nM	< 100 nM
CN[C@@H](C)C(=O)N[C@H](C(=O)N1CCC[C@H]1CN(CCc1ccc(F)cc1)C(=O)c1ccc(-c2ccc(C(=O)N(CCc3ccc(F)cc3)C[C@@H]3CCCN3C(=O)[C@@H](NC(=O)[C@H](C)NC)C3CCCCC3)cc2)cc1)C1CCCCC1 [Compound 6]	< 100 nM	< 100 nM	< 100 nM
CN[C@@H](C)C(=O)N[C@H](C(=O)N1CCC[C@H]1CN(CCc1ccc(F)cc1)C(=O)CNC(=O)c1ccc(-c2ccc(C(=O)NCC(=O)N(CCc3ccc(F)cc3)C[C@@H]3CCCN3C(=O)[C@@H](NC(=O)[C@H](C)NC)C3CCCCC3)cc2)cc1)C1CCCCC1 [Compound 8]	< 100 nM	< 100 nM	< 100 nM
CN[C@@H](C)C(=O)N[C@H](C(=O)N1CCC[C@H]1CN(CCc1ccccc1)C(=O)CNC(=O)c1ccc(-c2ccc(C(=O)NCC(=O)N(CCc3ccccc3)C[C@@H]3CCCN3C(=O)[C@@H](NC(=O)[C@H](C)NC)C3CCCC3)cc2)cc1)C1CCCC1 [Compound 17]	< 100 nM	< 100 nM	< 100 nM
CN[C@@H](C)C(=O)N[C@H](C(=O)N1CCC[C@H]1CN(CCc1ccccc1)C(=O)c1ccc(-c2ccc(C(=O)N(CCc3ccccc3)C[C@@H]3CCCN3C(=O)[C@@H](NC(=O)[C@H](C)NC)C3CCCCC3)cc2)cc1)C1CCCCC1 [Compound 18]	< 100 nM	< 100 nM	–
CN[C@@H](C)C(=O)N[C@H](C(=O)N1CCC[C@H]1CN(CCc1ccccc1)C(=O)c1ccc2cc(C(=O)N(CCc3ccccc3)C[C@@H]3CCCN3C(=O)[C@@H](NC(=O)[C@H](C)NC)C3CCC3)ccc2c1)C1CCC1 [Compound 19]	< 100 nM	< 100 nM	–
CN[C@@H](C)C(=O)N[C@H](C(=O)N1CCC[C@H]1CN(CCc1ccccc1)C(=O)c1ccc2cc(C(=O)N(CCc3ccccc3)C[C@@H]3CCCN3C(=O)[C@@H](NC(=O)[C@H](C)NC)C3CC3)ccc2c1)C1CC1 [Compound 20]	< 100 nM	> 100 nM	–
CN[C@@H](C)C(=O)N[C@H](C(=O)N1CCC[C@H]1CN(CCc1ccccc1)C(=O)c1ccc(-c2ccc(C(=O)N(CCc3ccccc3)C[C@@H]3CCCN3C(=O)[C@@H](NC(=O)[C@H](C)NC)C3CCC3)cc2)cc1)C1CCC1 [Compound 21]	< 100 nM	< 100 nM	–
CN[C@@H](C)C(=O)N[C@H](C(=O)N1CCC[C@H]1CN(CCc1ccccc1)C(=O)c1ccc(-c2ccc(C(=O)N(CCc3ccccc3)C[C@@H]3CCCN3C(=O)[C@@H](NC(=O)[C@H](C)NC)C3CC3)cc2)cc1)C1CC1 [Compound 22]	< 100 nM	< 100 nM	–
CN[C@@H](C)C(=O)N[C@H](C(=O)N1CCC[C@H]1CN(CCc1ccccc1)C(=O)c1ccc(-c2ccc(C(=O)N(CCc3ccccc3)C[C@@H]3CCCN3C(=O)[C@@H](NC(=O)[C@H](C)NC)C3CCCC3)cc2)cc1)C1CCCC1 [Compound 23]	< 100 nM	< 100 nM	–
